Holding throughout (assay type): nucleic-acid assay
Test [1] concerns Nucleic Acid. Put plainly: Ratio between poly-dAdT and poly-dGdC binding.
In a further test the test system is Calf thymus DNA. Kind of test: Thermal denaturation in sonicated calf thymus DNA (CT DNA). To be noted: Bos taurus.
The test system of test [2] is Nucleic Acid. Kind of test: Thermal denaturation in alternating poly(dG-dC)-poly(dG-dC) homopolymer (GC).
Test [3] deals with Nucleic Acid. Kind of test: Thermal denaturation in sonicated poly(dA)-poly(dT) homopolymer (AT).
Test [4] relates to Nucleic Acid. Kind of test: Thermal denaturation in alternating poly(dA-dT)poly(dA-dT) homopolymer (AT).

Results on one compound are retold here after ChEMBL document CHEMBL1126714, “Structure, DNA minor groove binding, and base pair specificity of alkyl- and aryl-linked bis(amidinobenzimidazoles) and bis(amidinoindoles)” (J Med Chem, 1993).

Molecules are shown by their SMILES.

The Tm is the temperature at which the thermal transition is half complete. In the case of `N=C(N)c1ccc2[nH]c(CCc3nc4cc(C(=N)N)ccc4[nH]3)nc2c1`, in the test on Nucleic Acid [1], the Ratio turned out to be 4. Also, the Tm is 18.5 °C with Calf thymus DNA, 4 °C in the test on Nucleic Acid [2], 42.4 °C in the test with Nucleic Acid [3] and 37.2 °C in the test on Nucleic Acid [4].
